For 55 molecules, Activity and viability results are on record in ChEMBL document CHEMBL4130502, “Discovery of thienopyrrolotriazine derivatives to protect mitochondrial function against Aβ-induced neurotoxicity” (Eur J Med Chem, 2017).

Data set [1] deals with Translocator protein (Mus musculus) (UniProt P50637). Put plainly: Inhibition of TSPO in mouse HT22 cells assessed as reduction in amyloid beta (1 to 42) (unknown origin) induced mitochondrial permeability transition pore formation by measuring increase in green to red fluorescence ratio at 5 uM pretreated for 10 mins followed by amyloid beta (1 to 42) stimulation and measured at 1 hr interval for 3 hrs by JC-1 dye based fluorescence assay relative to control. It counts as cell-based. Further details: scale not given: the % may be the effect or the level left.
Sequence of Translocator protein (Mus musculus) (P50637 whole entry, looked up): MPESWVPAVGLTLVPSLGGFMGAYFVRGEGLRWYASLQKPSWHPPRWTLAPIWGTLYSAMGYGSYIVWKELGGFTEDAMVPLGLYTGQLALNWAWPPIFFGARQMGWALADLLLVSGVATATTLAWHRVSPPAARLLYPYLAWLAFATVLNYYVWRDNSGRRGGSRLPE

The target is the same in data set [2]. Put plainly: Inhibition of TSPO in mouse HT22 cells assessed as recovery of ATP production at 5 uM preincubated for 10 mins followed by amyloid beta (1 to 42) stimulation and measured after 7 hrs by luciferase based assay relative to control. The data set is classed as cell-based. Further details: scale not given: the % may be the effect or the level left.

Data set [3] is described as follows: Cytotoxicity against mouse HT22 cells as cell viability at 5 uM after 24 hrs by MTT assay relative to control. The data set is classed as cell-based, HT-22. Particulars: read-out: Activity. In general terms: Tetrazolium dyes change colour on reduction, which living cells bring about.

For the molecule `Cc1cc2c(cc3c(SCC(=O)Nc4ccccc4)nnc(C)n32)s1`, the Activity in data set [1] turned out to be 58%; in data set [2], 19%. The viability at 24 h, 5 µM in data set [3] came to 88%.
Take `Cc1cc2c(cc3c(=O)n(CC(=O)N(C)C)nc(C)n32)s1`: the Activity in data set [1] turned out to be 17%; in data set [2], 0%. The viability at 24 h, 5 µM in data set [3] stood at 96%.
On to `COC(=O)CN(c1ccc(C(C)C)cc1)S(=O)(=O)c1ccc(C)cc1`, for which the Activity in data set [1] is 67%; in data set [2], -1%. For the same molecule, the viability at 24 h, 5 µM in data set [3] worked out at 92%.
Consider `C=CCN1C(=O)CN=C(c2ccccc2C)c2cc(CC)sc21`, for which, in data set [1], the Activity came out at 0%.
As for `CCc1nnc(SCC(=O)Nc2ccc(OC)c(OC)c2)c2cc3sccc3n12`, the results for the Activity in data set [1] and in data set [2] were 56% and 14%, respectively. Also, the viability at 24 h, 5 µM in data set [3] was 82%.
The corresponding values for `CCN(Cc1ccccc1)C(=O)Cn1nc(C)n2c(cc3sc(C)cc32)c1=O` are 45%, 9% and 90%.
The corresponding values for `C=CCN1C(=O)CN=C(c2ccccc2)c2c1sc(C)c2C` are 75%, -2% and 93%.
On to `Cc1cc2c(cc3c(=O)n(CC(=O)N(C)c4ccccc4)nc(C)n32)s1`, for which the results for the Activity in data set [1] and in data set [2] were 41% and 17%, respectively. The viability at 24 h, 5 µM in data set [3] is 100%.
For `Cc1nnc(SCC(=O)Nc2ccccc2)c2cc3sccc3n12`, the Activity in data set [1] stood at 59%; in data set [2] it was 5%. Further, the viability at 24 h, 5 µM in data set [3] came to 96%.
Consider `Cn1c(=O)oc2cc(NS(=O)(=O)Cc3ccco3)ccc21`, for which the figures for the Activity in data set [1] and in data set [2] were 41% and 14%, respectively. Further, the viability at 24 h, 5 µM in data set [3] turned out to be 103%.
With `CCN(C(=O)CCl)c1ncc(-c2ccc(OC)cc2)s1`, the Activity in data set [1] is 0%.
With `CCOC(=O)C(C)N1C(=O)CN=C(c2cccc(C)c2)c2c1sc1c2CCCC1` (centres undefined), the Activity in data set [1] came to 0%.
Consider `Cc1ccc(S(=O)(=O)Nc2ccc3c(c2)sc(=O)n3C)c(C)c1`, for which the Activity in data set [1] is 4%.
Regarding `CCc1nn(CC(=O)N(C)c2ccccc2)c(=O)c2cc3sccc3n12`, the figures for the Activity in data set [1] and in data set [2] were 50% and -9%, respectively. For the same molecule, in data set [3], the viability at 24 h, 5 µM amounted to 93%.
For the molecule `O=C(COc1ccc(Cl)cc1)ON=C(c1ccccc1)c1ccccc1`, the Activity in data set [1] was 0%.
Consider `CCc1nnc(SCC(=O)N(C)c2ccccc2)c2cc3sc(Cl)cc3n12`, for which the Activity came out at 61% in data set [1] and 22% in data set [2]. In addition, the viability at 24 h, 5 µM in data set [3] worked out at 78%.
With `CCCC(=O)n1nc(-c2ccco2)nc1S(=O)(=O)Cc1ccccc1`, in data set [1], the Activity came out at 0%.
For the molecule `CCc1nnc(SCC(=O)N(CC)Cc2ccccc2)c2cc3sccc3n12`, the Activity worked out at 56% in data set [1] and 1% in data set [2]. For the same molecule, in data set [3], the viability at 24 h, 5 µM was 99%.
The corresponding values for `CCc1nnc(SCC(=O)Nc2ccccc2)c2cc3sccc3n12` are 48%, -3% and 91%.
The corresponding values for `CCc1nnc(SCC(=O)N2CCN(c3ccccc3)CC2)c2cc3sccc3n12` are 53%, -4% and 68%.
`CCc1nnc(SCC(=O)N2CCN(c3ccccc3)CC2)c2cc3sc(Cl)cc3n12`: the Activity in data set [1] was 50%; in data set [2], -2%. Besides, in data set [3], the viability at 24 h, 5 µM was determined as 99%.
On to `COC(=O)C1CCc2ccccc2N1C(=O)c1ccc(OC)cc1` (centres undefined), for which the Activity in data set [1] was determined as 38%.
As to `CCc1nn(CC(=O)Nc2ccc(OC)c(OC)c2)c(=O)c2cc3sccc3n12`, the values for the Activity in data set [1] and in data set [2] were 56% and -17%, respectively. In addition, the viability at 24 h, 5 µM in data set [3] stood at 40%.
Regarding `CCOC(=O)C(C)N1C(=O)CN=C(c2ccc(OC)cc2)c2c1sc1c2CCCC1` (centres undefined), in data set [1], the Activity turned out to be 24%.
Consider `Cc1ccc(S(=O)(=O)NCc2cccnc2)c(C)c1`, for which the Activity in data set [1] was 0%.
With `C=CCN1C(=O)CN=C(c2cccs2)c2c1sc1c2CCC1`, the Activity in data set [1] came out at 38%.
On to `CCc1nn(CC(=O)N2CCN(c3ccccc3)CC2)c(=O)c2cc3sccc3n12`, for which the Activity in data set [1] is 56%; in data set [2], 9%. For the same molecule, the viability at 24 h, 5 µM in data set [3] was 91%.
For the molecule `CCc1nn(CC(=O)N(CC)Cc2ccccc2)c(=O)c2cc3sccc3n12`, the Activity in data set [1] is 57%; in data set [2], -11%. In data set [3], the viability at 24 h, 5 µM came to 100%.
Regarding `O=S(=O)(c1ccccc1Cl)N1CCCC1c1cccs1` (centres undefined), the Activity was 67% in data set [1] and -61% in data set [2]. Besides, the viability at 24 h, 5 µM in data set [3] is 114%.
Take `COc1ccc(NC(=O)CSc2nnc(C)n3c2cc2sccc23)cc1OC`: the values for the Activity in data set [1] and in data set [2] were 55% and 0%, respectively. Also, in data set [3], the viability at 24 h, 5 µM is 99%.
Consider `Cc1cc2c(cc3c(SCC(=O)N(C)c4ccccc4)nnc(C)n32)s1`, for which the Activity stood at 56% in data set [1] and 33% in data set [2]. In addition, the viability at 24 h, 5 µM in data set [3] was found to be 87%.
The corresponding values for `CCc1nnc(SCC(=O)NCc2ccccc2)c2cc3sccc3n12` are 50%, -15% and 54%.
The corresponding values for `Cc1nnc(SCC(=O)N2CCN(c3ccccc3)CC2)c2cc3sccc3n12` are 59%, 0% and 98%.
With `Cc1nnc(SCC(=O)NCc2ccccc2)c2cc3sccc3n12`, the Activity in data set [1] turned out to be 48%; in data set [2], 6%. Besides, the viability at 24 h, 5 µM in data set [3] worked out at 73%.
`COC(=O)CN1C(=O)C2CCCCC2Sc2ncccc21` (centres undefined): in data set [1], the Activity worked out at 0%.
As to `Cn1c(SCC(=O)NCc2ccccc2)nnc1-c1cc2ccccc2o1`, the Activity in data set [1] came out at 19%.
As for `CNC(=O)CN(c1ccc(Br)cc1)S(=O)(=O)c1ccc(C)cc1`, the Activity in data set [1] was 35%.
Take `CCc1nnc(SCC(=O)N(CC)Cc2ccccc2)c2cc3sc(C)cc3n12`: the Activity in data set [1] came out at 67%; in data set [2] it was 25%. For the same molecule, in data set [3], the viability at 24 h, 5 µM was 82%.
As to `CCOC(=O)C1=C(C)N/C(=C/c2ccccc2OCc2ccccc2)C1=O`, in data set [1], the Activity stood at 22%.
Consider `C=CCN1C(=O)CN=C(c2ccc(C(C)(C)C)cc2)c2c1sc1c2CCCC1`, for which the Activity in data set [1] was 14%.
For `CCN(Cc1ccccc1)C(=O)CSc1nnc(C)n2c1cc1sccc12`, the Activity is 63% in data set [1] and 8% in data set [2]. Further, the viability at 24 h, 5 µM in data set [3] amounted to 99%.
Consider `CCc1nnc(SCC(=O)Nc2ccccc2)c2cc3sc(Cl)cc3n12`, for which the values for the Activity in data set [1] and in data set [2] were 66% and 4%, respectively. Besides, in data set [3], the viability at 24 h, 5 µM was 95%.
The corresponding values for `Cc1cc2c(cc3c(SCC(=O)NCc4ccccc4)nnc(C)n32)s1` are 35%, -50% and 61%.
Regarding `COc1cc(-c2nnc(SCc3c(F)cccc3Cl)o2)cc(OC)c1OC`, the figures for the Activity in data set [1] and in data set [2] were 65% and -3%, respectively. Moreover, in data set [3], the viability at 24 h, 5 µM is 94%.
On to `Cc1noc(C)c1S(=O)(=O)NC(c1ccccc1)c1ccccc1`, for which the Activity in data set [1] was found to be 0%.
On to `COc1ccc(NC(=O)Cn2nc(C)n3c(cc4sc(C)cc43)c2=O)cc1OC`, for which the Activity in data set [1] was 52%; in data set [2], -8%. The viability at 24 h, 5 µM in data set [3] worked out at 97%.
On to `Cc1ccc2c(c1)C(c1ccccc1)=NCC(=O)N2C`, for which the Activity in data set [1] is 1%.
As for `Cc1cc2c(cc3c(SCC(=O)N4CCN(c5ccccc5)CC4)nnc(C)n32)s1`, the Activity in data set [1] was 69%; in data set [2] it was -9%. For the same molecule, the viability at 24 h, 5 µM in data set [3] came to 99%.
Take `COc1ccccc1C1NC(=S)NC(C)=C1C(=O)OCc1ccccc1` (centres undefined): the Activity in data set [1] worked out at 56%; in data set [2], 0%. Besides, the viability at 24 h, 5 µM in data set [3] worked out at 88%.
For the molecule `CCc1nn(CC(=O)N(C)C)c(=O)c2cc3sccc3n12`, the Activity in data set [1] was 12%; in data set [2] it was -3%. In addition, in data set [3], the viability at 24 h, 5 µM is 98%.
The corresponding values for `CN1C(=O)CN=C(c2ccc(Cl)cc2)c2cc(Cl)ccc21` [RO-54864] are 12%, 9% and 100%.
On to `CN1C(=O)CN=C(c2ccccc2)c2cc(Br)ccc21`, for which the Activity in data set [1] was determined as 0%.
As for `CCc1nnc(SCC(=O)NCc2ccccc2)c2cc3sc(C)cc3n12`, the values for the Activity in data set [1] and in data set [2] were 55% and -3%, respectively. For the same molecule, the viability at 24 h, 5 µM in data set [3] was determined as 29%.
Regarding `O=C(Cc1coc2ccc3ccccc3c12)NCc1ccco1`, the Activity in data set [1] was 85%; in data set [2], -3%. Further, the viability at 24 h, 5 µM in data set [3] came to 96%.
With `CCc1nnc(SCC(=O)Nc2ccc(OC)c(OC)c2)c2cc3sc(Cl)cc3n12`, the Activity in data set [1] was determined as 69%; in data set [2], 7%. In data set [3], the viability at 24 h, 5 µM came to 94%.
